Assay results taken from patent US9526785B2, “Pharmaceuticals for oral delivery” (Enteris BioPharma, Inc., priority 2013, dated 2016).
Read-outs that look alike come from different tables or passages of the source.

Assay: Tigecycline plasma PK and % F after intraduodenal (ID) injection in anesthetized rats
Format: in vivo, Sprague-Dawley Rats
Settings: female, Sprague-Dawley, rat, plasma
Procedure: Animals weighed approximately 250 g at the time of testing. Rats were fasted overnight (with water available), prior to dosing.
Intravenous (IV) doses were administered as a bolus injection into the left carotid […] at a dose volume of 1.6 mL/kg. Intraduodenal doses were administered as bolus injections into the duodenum at a dose volume of 1.2 mL/kg.
An additional study was conducted exploring the effect of formulation pH at constant CA and LLC concentrations (RA867).
Female rats were maintained in groups of 3 per polycarbonate (or equivalent) shoebox cage with fresh wood chip bedding at 20-22° C. under a 12 hour on/off light:dark cycle. […] After the rats went limp they were injected intraperitoneally (IP) with 0.1 mL ketamine/xylazine. The anesthetic state was maintained by IP injection of ketamine/xylazine on an as needed basis. Animal weights were determined post-anesthesia induction.
An indwelling catheter for blood sampling was inserted into the right carotid artery by exposing the trachea with Mayo scissors, clamping the bottom of the […] and tying off the top with surgical suture. The area between was nicked with small sharp scissors and Intramedic polyethylene tubing was inserted into the nicked area. The artery with the tubing was sealed with suture to prevent leakage. A 23-gauge Intramedic Luer Stub Adapter was inserted into the cannula and attached to a 3 way valve which was connected to a 3 cc syringe filled with 0.9% normal saline and a 1 cc syringe filled with 5 U/mL sodium heparin for blood sampling.
An intraduodenal injection was utilized to mimic oral delivery of an enterically coated capsule or tablet formulation. […] Mayo scissors were used to expose the duodenum and the site of administration was identified by measuring 5 cm from the junction of the stomach and the duodenum towards the jejunum. The measured site was identified by inserting a small piece of surgical suture underneath the site for injection. After the formulation was injected, the abdominal cavity was closed with surgical clips.
Blood samples were collected in tubes containing 20 μL 180 mM EDTA. The tubes were maintained on ice and then centrifuged at approximately 3000 rpm at 4° C. for 5 minutes. Plasma was harvested immediately after centrifugation of the samples and stored at −20° C. pending analysis.
Minocycline (VWR international) was used as an internal standard. Sample processing/clean-up of plasma samples was carried out offline by protein precipitation with acidified acetonitrile.
The HPLC system consisted of Shimadzu SIL-HTc HPLC system equipped with dual Shimadzu LC-10ADvp isopumps, a Shimadzu CTO-10ASvp column temperature controller and a Shimadzu SPD-10Avp variable wavelength detector. […] Mobile phase A consisted of 23 mM phosphate buffer pH 2.5 with 6 mM 1-octanesulfonic acid, while mobile phase B consisting of pure acetonitrile. […] The mobile phase flow rate was 1.2 mL/min. Detection was performed using the SPD-10Avp variable wavelength detector set at 350 nm, with a sensitivity of 0.001 aufs.
The samples were then centrifuged under refrigeration at 13 k rpm for 30 minutes. The supernatant was taken and the liquid was removed to dryness in a turbovap. The samples were then reconstituted in 55 μL 0.1M phosphate buffer, pH 3.8. Samples were maintained at 10° C. while on the autoinjector during sequence. The injection volume was 50 μL. The unknown concentration in rat plasma samples was determined by interpolation of the peak area ratios of analyte:internal standard versus the ratio of their nominal concentrations into the regression line obtained from calibration standards spiked in pooled rat plasma. No regression weighting was used for the calculations. […] The calibration curve covered the range of 0.05 μg/mL to 5.0 μg/mL.

[1] = […], RA869, ID, 400 mM CA/26 mM LLC
[2] = other: intraduodenal bolus injection, 4.8 mg/kg, ID, PBS, 4.8 mg/kg (RA851)
[3] = other: intraduodenal bolus injection, 4.8 mg/kg, pH 3.5, ID, 100 mM CA (pH 3.5), 26 mM LLC, 4.8 mg/kg (RA851)
[4] = other: intraduodenal bolus injection, 4.8 mg/kg, pH 3.5, ID, 400 mM CA (pH 3.5), 26 mM LLC, 4.8 mg/kg (RA851), parent Tigecycline peak only
[5] = other: intraduodenal bolus injection, 9 mg/kg, ID, PBS, 9.0 mg/kg (RA853), animal RA853-4 only
[6] = other: intraduodenal bolus injection, 9 mg/kg, pH 3.5, ID, 100 mM CA (pH 3.5), 26 mM LLC, 9.0 mg/kg (RA853)
[7] = other: intraduodenal bolus injection, 9 mg/kg, pH 3.5, ID, 400 mM CA (pH 3.5), 26 mM LLC, 9.0 mg/kg (RA853), parent Tigecycline peak only

CN(C)c1cc(NC(=O)CNC(C)(C)C)c(O)c2c1C[C@H]1C[C@H]3[C@H](N(C)C)C(O)=C(C(N)=O)C(=O)[C@@]3(O)C(O)=C1C2=O [Tigecycline]
Cmax ([…], RA869, ID, 26 mM LLC only, […], read-out: Cmax, mean): 0.105 µg/mL
AUC(0-t) [1]: 0.222 µg·h/mL
Tmax [1]: 15 min
bioavailability ([…], RA869, ID, 400 mM CA/26 mM LLC, […], read-out: % F, mean): 21.6%
Cmax ([…], RA869, ID, 400 mM CA/26 mM LLC, […], read-out: Cmax, mean): 0.246 µg/mL
concentration at 0 min [2]: 0 µg/mL
concentration at 10 min [2]: 0.031 µg/mL
concentration at 20 min [2]: 0.031 µg/mL
concentration at 30 min [2]: 0.033 µg/mL
concentration at 60 min [2]: 0 µg/mL
concentration at 120 min [2]: 0.053 µg/mL
concentration at 240 min [2]: 0.066 µg/mL
concentration at 0 min [3]: 0 µg/mL
concentration at 10 min [3]: 0.71 µg/mL
concentration at 20 min [3]: 0.672 µg/mL
concentration at 30 min [3]: 0.601 µg/mL
concentration at 60 min [3]: 0.398 µg/mL
concentration at 120 min [3]: 0.306 µg/mL
concentration at 0 min [4]: 0 µg/mL
concentration at 10 min [4]: 0.92 µg/mL
concentration at 20 min [4]: 0.788 µg/mL
concentration at 30 min [4]: 0.618 µg/mL
concentration at 60 min [4]: 0.455 µg/mL
concentration at 120 min [4]: 0.345 µg/mL
concentration at 240 min [4]: 0.386 µg/mL
concentration at 0 min [5]: 0 µg/mL
concentration at 10 min [5]: 0 µg/mL
concentration at 20 min [5]: 0 µg/mL
concentration at 30 min [5]: 0.391 µg/mL
concentration at 60 min [5]: 0.44 µg/mL
concentration at 120 min [5]: 0.129 µg/mL
concentration at 0 min [6]: 0 µg/mL
concentration at 10 min [6]: 1.77 µg/mL
concentration at 20 min [6]: 1.98 µg/mL
concentration at 30 min [6]: 1.35 µg/mL
concentration at 60 min [6]: 0.608 µg/mL
concentration at 120 min [6]: 0.273 µg/mL
concentration at 0 min [7]: 0 µg/mL
concentration at 10 min [7]: 2.49 µg/mL
concentration at 20 min [7]: 2.16 µg/mL
concentration at 30 min [7]: 1.76 µg/mL
concentration at 60 min [7]: 1.06 µg/mL
concentration at 120 min [7]: 0.683 µg/mL
bioavailability (other: intraduodenal bolus injection, pH 3.5, ID, 400 mM CA pH 3.5 and 26 mM LLC (RA851, RA853), read-out: absolute % F): ~22%
bioavailability (other: intraduodenal injection, 4.8 mg/kg, ID, PBS, 4.8 mg/kg (RA851), relative to 0.64 mg/kg IV, read-out: % F, Mean): 1.6%
bioavailability (other: intraduodenal injection, 4.8 mg/kg, pH 3.5, ID, 100 mM CA (pH 3.5), 26 mM LLC, 4.8 mg/kg (RA851), relative to 0.64 mg/kg IV, read-out: % F, Mean): 10.9%
bioavailability (other: intraduodenal injection, 9 mg/kg, ID, PBS, 9.0 mg/kg (RA853), without animal RA853-6, relative to 12 mg/kg IV, read-out: % F, Mean): 2.8%
Cmax (other: intraduodenal injection, 9 mg/kg, ID, PBS, 9.0 mg/kg (RA853), suspected injection site leakage, read-out: Cmax, one animal not included in the mean): 1.11 µg/mL
bioavailability (other: intraduodenal injection, 9 mg/kg, pH 3.5, ID, 100 mM CA (pH 3.5), 26 mM LLC, 9.0 mg/kg (RA853), relative to 12 mg/kg IV, read-out: % F, Mean): 11.4%
bioavailability (other: intraduodenal injection, 9 mg/kg, pH 3.5, ID, 400 mM CA (pH 3.5), 26 mM LLC, 9.0 mg/kg (RA853), parent Tigecycline peak only, relative to 12 mg/kg IV, read-out: % F, Mean): 21.8%
bioavailability (other: intraduodenal injection, […], RA869, ID, 26 mM LLC only, […], read-out: % F, mean): 9%
bioavailability (other: intraduodenal injection, […], RA869, ID, 400 mM CA/26 mM LLC, […], read-out: % F, mean): ~22%
bioavailability (other: intraduodenal injection, pH 3.5, ID, 100 mM CA pH 3.5 and 26 mM LLC (RA851, RA853), read-out: absolute % F): ~11%
